Measurements as given in US4339379A, “N-Acrylcarnosine aluminum salts” (Nippon Chemiphar Co., Ltd., priority 1979, dated 1982).
Several values for one entry are separate records, joined by “and”; a condition that tells them apart may be missing. Equal values may be shown once.

Tests used:
Shay's ulcer = Shay's ulcer (pylorus ligation) in rats; assay type: in vivo, male Donryu strain rats; conditions: for Ulcer index: total ulcerated area in forestomach
Procedure: Shay's ulcer: Groups of ten male Donryu strain rats each weighing 210 to 230 g were deprived of food for 48 hours. The pylorus of each rat was ligated according to the method of Shay et al [Gastroenterology, 5, 43-61 (1945)]. Each of the animals was allowed to stand abstained from food and water for further 14 hours and then sacrificed to remove its stomach. After collection of the gastric juice, the ulcerated area (mm^2) in the forestomach of each rat was measured under a dissecting microscope (10×). The total area (mm^2) of all the lesions of each rat was indicated as an ulcer index. Test medicine samples were given orally immediately after the pylorus ligation.

[1] = test system: Indomethacin-induced ulcer; experiment: Indomethacin-induced ulcer in rats; assay type: in vivo, male Donryu strain rats; conditions: for Ulcer index: Indomethacin (25 mg/kg s.c.)-induced ulcer, 300 mg/kg P.O. ten minutes before pylorus ligation, total length of lesions
Procedure: Indomethacin-induced ulcer: Groups of ten male Donryu strain rats each weighing 200 to 215 g were deprived of food for 24 hours. Then, the pylorus was ligated under ether anethesia, after which indomethacin was administered subcutaneously in an amount of 25 mg/kg to each rat. Seven hours after the administration, each of the animals was sacrificed under ether anethesia to remove its stomach, followed by immersion in a 1% formalin solution for ten minutes. The stomach which had been semi-fixed was incised along its greater curvature, and the length (mm) of each lesion formed in the mucous membrane was measured under a dissecting microscope (10×). The total length (mm) of all the lesions of each rat was indicated as an ulcer index. Test medicine samples were given orally ten minutes before the pylorus legation.

[2] = rats, 1,000 mg/kg P.O. immediately after pylorus ligation
[3] = Indomethacin-induced ulcer, 300 mg/kg P.O.

For N-acetyl-L-carnosine aluminum salt [B], the “% Inhibition” value (Shay's ulcer; rats, 1,000 mg/kg P.O.) was 72.4%, the Ulcer index (Shay's ulcer; [2]) was 0.8 ± 0.6 mm^2 and the Ulcer index [1] was 6.5 ± 2.5 mm. The “% Inhibition” value [1, 3] was 61.3%.
For N-propionyl-L-carnosine aluminum salt, the “% Inhibition” value (Shay's ulcer; rats, 1,000 mg/kg P.O.) was 74.2% and the Ulcer index (Shay's ulcer; [2]) was 0.8 ± 0.8 mm^2.
With NCCC(=O)N[C@@H](Cc1cnc[nH]1)C(=O)O [L-Carnosine, L-carnosine] the Ulcer index [1] was 17.1 ± 3.1 mm and the “% Inhibition” value [1, 3] was ~ 0%.
In the case of N-acetyl-DL-carnosine aluminum salt, the “% Inhibition” value (Shay's ulcer; rats, 1,000 mg/kg P.O.) is reported as 75.9%, the Ulcer index (Shay's ulcer; [2]) is reported as 0.7 ± 0.8 mm^2 and the Ulcer index [1] is reported as 6.7 ± 3.0 mm. For the same compound, the “% Inhibition” value [1, 3] was 60.1%.
With aluminum sucrose sulfate the “% Inhibition” value (Shay's ulcer; rats, 1,000 mg/kg P.O.) was 72.4% and 71.0%, the Ulcer index (Shay's ulcer; [2]) was 0.8 ± 0.6 mm^2 and 0.9 ± 0.5 mm^2 and the Ulcer index [1] was 7.4 ± 2.8 mm. The “% Inhibition” value [1, 3] was 56.0%.
NC(=O)CC[C@H](N)C(=O)O [L-Glutamine, L-glutamine] showed a Ulcer index [1] of 9.7 ± 3.9 mm and an inhibition at 300 mg/kg ([1]; Rattus norvegicus, po, Indomethacin-induced ulcer, 300 mg/kg P.O.) of 42.3%.
CC(=O)N[C@@H](CCC(N)=O)C(=O)O.[Al] [N-Acetyl-L-glutamine aluminum, N-acetyl-L-glutamine aluminum] was tested, and the inhibition at 2000 mg/kg (Shay's ulcer; Rattus norvegicus, po, rats, 2,000 mg/kg P.O.) was 69%, the “% Inhibition” value (Shay's ulcer; rats, 2,000 mg/kg P.O.) was 67.7% and the Ulcer index (Shay's ulcer; rats, 2,000 mg/kg P.O. immediately after pylorus ligation) was 0.9 ± 0.7 mm^2 and 1.0 ± 0.6 mm^2.
